Experimental data published in patent US11008572B2, “Methods and compositions for modulating splicing” (SKYHAWK THERAPEUTICS, INC., priority 2017, dated 2021).
Read-outs that look alike come from different tables or passages of the source.

How the values were obtained:
A673 cells = assay: Dose-response cell proliferation, crystal violet assay, 72 h; format: cell-based; conditions: ratio of IC50 in NHDF cells to IC50 in A673 cells
Procedure: Small molecule splicing modulators were tested in a dose-response assay using A673 cells and NHDF cells.
A673 cells or NHDF cells were first plated in 96-well plastic tissue culture plates (10,000 cells per well). The cells were treated with vehicle alone (DMSO), or increasing concentrations of SMSM compounds for 72 h. Following treatment, cell proliferation was determined using a crystal violet assay. The relative cell proliferation at each concentration was determined.

[1] = tested on: FOXM1^A2 mRNA and FOXM1^BC mRNA; assay: Splicing assay (FOXM1), qPCR of isoform mRNAs; format: cell-based
Outline: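 RT-qPCR read-out after 24 h compound exposure at 37° C., 0.2% DMSO, top dose 10 μM with 4-fold 8-point dilutions, 20,000 cells per well. Copy numbers from plasmid standard curves, PPIA-normalized, expressed as isoform ratio relative to DMSO.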

A-673 cells = assay: Cell viability, crystal violet staining; format: cell-based; conditions: Homo sapiens
Outline: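 Readout is absorbance at 570 nm of crystal violet, taken up in 0.1 M sodium citrate in 50% ethanol after staining with 0.5% dye in 25% methanol. Plates held 5×10^3 cells per well, and compounds were added one day after seeding for 72 hours. Data are relative to vehicle, mean±SE.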

[2] = Splicing (IC50), Example 22; format: cell-based; conditions: spliced gene and cells not stated
Procedure: A-673 cell viability […], splicing (IC50) and brain AUC/Plasma AUC of SMSMs were determined. As shown in the tables below SMSMs had high CNS exposure.

[3] = Maximum tolerable dose study; format: in vivo; conditions: mice, 3 per group
Procedure: Survival of mice after administration of SMSMs after 10 or 11 days was assessed.
Tolerance of the drug treatments was determined by measuring the weight of the mice during the period of drug administration. Body weight was measured prior to tumor inoculation and prior to the treatment administration and then daily. The changes in the final weight of the mice for the SMSM treatments were determined.

SMN2^Δ7 mRNA = assay: SMN2 splicing assay, real-time quantitative PCR, SMA type I patient cells (GM03813); format: cell-based; conditions: Homo sapiens, 24 hours
Procedure: (§1) Various cells lines were treated with the SMSMs described herein. RNA was then isolated, cDNA synthesized, qPCR performed and the levels of various mRNA targets of the SMSMs were determined. In some instances, RNA was isolated, cDNA synthesized, qPCR performed and the levels of mRNA isoforms in the various cell samples were determined.
(§2) SMA type I patient cells (GM03813 (Coriell))
(§3) On the day of the experiment, a 96-well plate was seeded with the cell lines of interest. The cells were diluted with full growth media to a concentration of 2.0×10^5 cells/mL and 100 μL of cells were added to each well (20,000 cells per well). The cells were treated with a compound immediately after plating.
(§4) The compounds were then added to the cell plate using the HP compound dispenser. In the initial experiment, a top concentration of 10 μM and an 8 point 4-fold dilution scheme was used. The stock compounds were made at a concentration of 5 mM, and the DMSO concentration was set to 0.2%. DMSO was used to normalize all the compound-containing wells and the untreated cells.
(§5) The treated cells were incubated at 37° C. in a 5% CO2 incubator for the desired amount of time. Plates were placed in a plastic bag with a wet paper towel to prevent evaporation.
(§6) RNA was isolated using the Cells to CT kit (ThermoFisher, AM1728). The cells were washed once with 100 μL cold PBS. 50 μL of lysis buffer was added to each well/tube (49.5 μL lysis buffer+0.5 μL DNase I per well/tube). The lysis reaction was mixed and incubated at room temperature for 5 minutes. 5 μL of stop solution was added directly into each cell lysis reaction and mixed by pipetting up and down 5 times. The plates/tubes were incubated at room temperature for 2 minutes then placed on ice if the cDNA synthesis was to be performed immediately. Otherwise, the plates/tubes were stored at −80° C.
(§7) cDNA synthesis reactions were then performed. 40 μL RT master mix was added to PCR tubes or plate wells. 10 μL of RNA was added to each tube/well. The RT thermal cycler program was then run and tubes or plate wells were incubated at 37° C. for 1 hour, then at 95° C. for 5 minutes to deactivate the enzyme.
(§8) The qPCR was performed using a QuantStudio 6instrument (ThermoFisher) and the following cycling conditions and according to the tables below. All samples and standards were analyzed in triplicate. Cycle 1: 2 minutes at 50° C. Cycle 2: 10 minutes at 95′C. Cycle 3 (repeat 40 times): 15 seconds at 95° C., 1 minute at 60° C.
(§9) The determined SMN2^Δ7 and SMN2^FL quantities were then be used to determine the SMN2^Δ7:SMN2^FL ratio at the various compound concentrations. The PPIA quantities were used in the normalization to account of cell proliferation effects of the compounds.
(§10) An assay to measure the SMN2^FL mRNA and SMN2^Δ7 mRNA simultaneously in cell wells was performed. The RNA values were measured relative to DMSO control and also included a housekeeping gene, PPIA to ensure data was consistent. The mRNA values were measured after 24 hours of incubation with the SMSM compounds.
(§11) Additionally, to monitor expression levels of SMN2 splice variant using real-time quantitative PCR, SMA type I patient cells (GM03813 (Coriell)) were plated at 5,000 cells/well in 200 μl Dulbecco's modified Eagle's medium (DMEM) with GlutaMAX and 10% fetal bovine serum (FBS) (Life Technologies, Inc.) in 96-well plates, and incubated for 6 hours in a cell culture incubator. Cells were then treated with SMSMs at different concentrations (0.5% DMSO) in duplicate for 24 hours. After removal of the supernatant, cells were lysed in Cells-To-Ct lysis buffer (Life Technologies, Inc.) according to the manufacturer's recommendations. The mRNA levels of SMN2 FL, SMN2 A7 were quantified using Taqman-based RT-qPCR and SMN2-specific primers and probes. The SMN2 forward and reverse primers were each used at a final concentration of 0.4 μM. The SMN2 probe was used at a final concentration of 0.1 μM. […]

SMN2^FL mRNA = assay: as above; format: cell-based; conditions: Homo sapiens, 24 hours
Procedure: as §1, §2, §3, §4, §5, §6, §7, §8, §9, §10, §11

[4] = FoxM1 BC mRNA decrease (exon included), read-out: Splice IC50 (nM) FoxM1 BC mRNA decrease (exon included)
[5] = Homo sapiens, A673, 24 h, A-673 cells, 24 hours, table does not say EC50 or IC50, read-out: FOXM1
[6] = Homo sapiens, A-375, 24 h, A-375 cells, 24 hours, table does not say EC50 or IC50, read-out: FOXM1
[7] = Homo sapiens, Hep3B, 24 h, Hep-3B cells, 24 hours, table does not say EC50 or IC50, read-out: FOXM1
[8] = Homo sapiens, K562, 24 h, K-562 cells, 24 hours, table does not say EC50 or IC50, read-out: FOXM1
[9] = Homo sapiens, MDA-MB-468, 24 h, MDA-MB-468 cells, 24 hours, table does not say EC50 or IC50, read-out: FOXM1
[10] = Homo sapiens, NCI-H358, 24 h, NCI-H358 cells, 24 hours, table does not say EC50 or IC50, read-out: FOXM1
[11] = Homo sapiens, PANC-1, 24 h, PANC-1 cells, 24 hours, table does not say EC50 or IC50, read-out: FOXM1
[12] = Homo sapiens, PC-3, 24 h, PC-3 cells, 24 hours, table does not say EC50 or IC50, read-out: FOXM1
[13] = Homo sapiens, U-87 MG, 24 h, U-87MG cells, 24 hours, table does not say EC50 or IC50, read-out: FOXM1
[14] = read-out: Splice EC50 (nM) FoxM1 A mRNA increase (exon excluded)
[15] = A673, cell viability, read-out: A-673 IC50 (nM) Cell viability
[16] = A673, read-out: A-673 cell viability (IC50)
[17] = 24 h, FoxM1 BC mRNA decrease (exon included), 0.1-1000 nM, 24 hours, read-out: Splice IC50 (nM), FoxM1 BC mRNA decrease (exon included)
[18] = FoxM1 A mRNA increase (exon excluded), 0.1-1000 nM, 24 hours, read-out: Splice EC50 (nM), FoxM1 A mRNA increase (exon excluded)
[19] = A673, cell viability, read-out: A-673 IC50 (nM), Cell viability

CC(/C=C/C(=O)NO)=C\[C@@H](C)C(=O)c1ccc(N(C)C)cc1 [Trichostatin A]
Ratio NHDF/A673 IC50 (A673 cells): ≤10

CN(c1ccc(-c2cc(F)c(-c3cn[nH]c3)cc2O)nn1)[C@H]1C[C@]2(C)CC[C@](C)(C1)N2 [compound 167, 2-(6-(((1R,3s,5S)-1,5-dimethyl-8-azabicyclo[3.2.1]octan-3-yl)(methyl)amino)pyridazin-3-yl)-4-fluoro-5-(1H-pyrazol-4-yl)phenol]
IC50 [1, 4]: < 10 nM | IC50 [1, 5]: < 1 nM | IC50 [1, 6]: < 1 nM | IC50 [1, 7]: 11 to 100 nM | IC50 [1, 8]: 1 to 10 nM | IC50 [1, 9]: 1 to 10 nM | IC50 [1, 10]: < 1 nM | IC50 [1, 11]: 11 to 100 nM | IC50 [1, 12]: 11 to 100 nM | IC50 [1, 13]: 11 to 100 nM | EC50 [1, 14]: < 10 nM | Ratio NHDF/A673 IC50 (A673 cells): >2,500 | IC50 (A-673 cells; [15]): < 10 nM | IC50 (A-673 cells; [16]): < 0.5 nM | IC50 [2]: < 1 nM | Outcome ([3]; IP 0.1 mg/kg BIDx12): All survived | Outcome ([3]; IP 0.3 mg/kg BIDx12): All survived | Outcome ([3]; IP 1 mg/kg QDx12): All survived | Outcome ([3]; PO 5 mg/kg QDx12): All survived

CN(c1ccc(-c2ccc(-c3ccn(C)c(=O)c3)cc2O)nn1)[C@H]1C[C@]2(C)CC[C@](C)(C1)N2 [compound 168, 4-(4-(6-(((1R,3s,5S)-1,5-dimethyl-8-azabicyclo[3.2.1]octan-3-yl)(methyl)amino)pyridazin-3-yl)-3-hydroxyphenyl)-1-methylpyridin-2(1H)-one]
IC50 [1, 4]: < 10 nM | IC50 [1, 5]: 1 to 10 nM | IC50 [1, 6]: 1 to 10 nM | IC50 [1, 7]: 101 to 200 nM | IC50 [1, 8]: 11 to 100 nM | IC50 [1, 9]: 11 to 100 nM | IC50 [1, 10]: 1 to 10 nM | IC50 [1, 11]: 101 to 200 nM | IC50 [1, 12]: 11 to 100 nM | IC50 [1, 13]: 11 to 100 nM | EC50 [1, 14]: > 1000 nM | Ratio NHDF/A673 IC50 (A673 cells): >500 | IC50 (A-673 cells; [15]): < 10 nM | IC50 (A-673 cells; [16]): ≤ 5 nM | IC50 [2]: < 1 nM

CN(c1ccc(-c2cc(F)c(-c3ccn(C)c(=O)c3)cc2O)nn1)[C@H]1C[C@]2(C)CC[C@](C)(C1)N2 [compound 169, 4-(4-(6-(((1R,3s,5S)-1,5-dimethyl-8-azabicyclo[3.2.1]octan-3-yl)(methyl)amino)pyridazin-3-yl)-2-fluoro-5-hydroxyphenyl)-1-methylpyridin-2(1H)-one]
IC50 [1, 4]: < 10 nM | EC50 [1, 14]: > 1000 nM | IC50 (A-673 cells; [15]): < 10 nM | IC50 (A-673 cells; [16]): ≤ 5 nM | IC50 [2]: < 1 nM

Oc1cc(-n2ccnc2)ccc1-c1ccc(O[C@@H]2C[C@H]3CC[C@@H](C2)N3)nn1 [compound 245, 2-(6-(((1R,3s,5S)-8-azabicyclo[3.2.1]octan-3-yl)oxy)pyridazin-3-yl)-5-(1H-imidazol-1-yl)phenol]
IC50 [1, 17]: 101 to 250 nM | EC50 [1, 18]: 10 to 100 nM | IC50 (A-673 cells; [19]): 501 to 1000 nM | IC50 [2]: 30 nM

Oc1cc(-n2nccn2)ccc1-c1ccc(O[C@@H]2C[C@H]3CC[C@@H](C2)N3)nn1 [compound 251, 2-(6-(((1R,3s,5S)-8-azabicyclo[3.2.1]octan-3-yl)oxy)pyridazin-3-yl)-5-(2H-1,2,3-triazol-2-yl)phenol]
IC50 [1, 17]: 101 to 250 nM | EC50 [1, 18]: 10 to 100 nM | IC50 (A-673 cells; [19]): 251 to 500 nM | IC50 [2]: 150 nM

Cc1nnn(-c2ccc(-c3ccc(O[C@@H]4C[C@H]5CC[C@@H](C4)N5)nn3)c(O)c2)n1 [compound 258, 2-(6-(((1R,3s,5S)-8-azabicyclo[3.2.1]octan-3-yl)oxy)pyridazin-3-yl)-5-(5-methyl-2H-tetrazol-2-yl)phenol]
IC50 [1, 17]: 101 to 250 nM | EC50 [1, 18]: 10 to 100 nM | IC50 (A-673 cells; [19]): 251 to 500 nM | IC50 [2]: 149 nM

COc1cc(-c2ccc(-c3ccc(N(C)[C@@H]4C[C@H]5CCC[C@@H](C4)N5)nn3)c(O)c2)ccn1 [compound 289, 2-(6-(((1R,3s,5S)-9-azabicyclo[3.3.1]nonan-3-yl)(methyl)amino)pyridazin-3-yl)-5-(2-methoxypyridin-4-yl)phenol]
IC50 (SMN2^Δ7 mRNA): 4 nM | EC50 (SMN2^FL mRNA): 4 nM | IC50 (A-673 cells; [19]): < 10 nM
